Results published in paper PMC8691691 (ACS Chemical Neuroscience, 2021).
Residue numbers refer to the chain shown, from its start. Like-named read-outs stand apart in the source and are kept apart here.

How the values were obtained:
[1] = molecular target: T1, GlyT2 A223C mutant (Rattus norvegicus, UniProt P58295, A223C); assay: MTSEA-biotin labeling of A223C mutant in NaCl or choline chloride, COS7 cells; type: cell-based; conditions: 1 μM inhibitor; HBS containing NaCl or choline chloride
T1 construct: expressed in transfected cells; host or cells: COS7
T1 sequence (P58295 1-799 A223C): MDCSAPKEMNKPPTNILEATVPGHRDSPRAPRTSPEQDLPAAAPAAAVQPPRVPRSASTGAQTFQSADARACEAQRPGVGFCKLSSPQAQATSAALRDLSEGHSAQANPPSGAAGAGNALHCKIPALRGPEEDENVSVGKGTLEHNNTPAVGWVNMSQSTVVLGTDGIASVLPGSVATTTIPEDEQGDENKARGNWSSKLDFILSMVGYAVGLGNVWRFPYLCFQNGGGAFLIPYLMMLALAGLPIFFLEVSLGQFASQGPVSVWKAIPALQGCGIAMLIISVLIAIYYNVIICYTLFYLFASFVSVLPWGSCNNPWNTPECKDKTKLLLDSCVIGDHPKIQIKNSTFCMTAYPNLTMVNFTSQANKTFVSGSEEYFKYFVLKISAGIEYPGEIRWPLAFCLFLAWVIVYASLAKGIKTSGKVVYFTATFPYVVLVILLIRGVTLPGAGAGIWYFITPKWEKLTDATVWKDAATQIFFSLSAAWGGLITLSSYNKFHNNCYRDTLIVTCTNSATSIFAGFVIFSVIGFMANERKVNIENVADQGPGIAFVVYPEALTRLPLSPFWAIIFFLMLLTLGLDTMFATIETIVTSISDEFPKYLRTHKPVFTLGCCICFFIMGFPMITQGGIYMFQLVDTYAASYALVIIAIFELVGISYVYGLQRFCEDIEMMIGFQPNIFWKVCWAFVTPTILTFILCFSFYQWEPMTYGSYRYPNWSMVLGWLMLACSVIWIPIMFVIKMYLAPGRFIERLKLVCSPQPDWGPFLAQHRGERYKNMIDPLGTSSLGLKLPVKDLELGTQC
From the text: Several pieces of evidence were obtained to confirm this prediction (Figure 7). […] A second piece of evidence came from experiments using the […] mutant of GlyT2 that contains an exogenous cysteine in EL1, a region sensitive to the different conformations of the transporter induced by the substrates during the transport cycle.[44] […] Then, the cells were washed and subjected to MTSEA-biotin staining as described above.

[2] = molecular target: T2, GlyT2 (Rattus norvegicus, UniProt P58295); assay: [3H]glycine transport by recombinant GlyT2 expressed in COS7 cells; type: cell-based; conditions: for Vmax of glycine transport: n = 3; for reversibility of inhibition upon cell washing: washed, transport at 10 μM glycine; for decay of transport inhibition after 1–4 washes: 1 μM inhibitor 10 min, washes with HBS containing NaCl or choline chloride
T2 construct: expressed in transfected cells; host or cells: COS7
T2 sequence (P58295 1-799): T1 sequence (P58295 1-799 A223C) with C223A
Method: Substitution mutants were generated with the QuikChange II Site-Directed Mutagenesis kit (Agilent Technologies, Santa Clara, CA, USA), using rGlyT2 or rGlyT1 subcloned in pCDNA3.[47] The complete coding region of all of the constructs was sequenced to verify that only the desired mutation had been introduced. […] COS7 cells were grown and transfected using Turbofect Transfection Reagent (Thermo Fisher Scientific, Waltham, MA, USA), following the manufacturer’s protocol (2 μL reagent/μg of DNA). Cells were incubated for 48 h at 37 °C until used.
At the end of the desired time (usually 10 min), reactions were washed and terminated by aspiration. […] A nonlinear curve fitting method was used to obtain IC50 values using Graphpad Prism software, version 6.0, Graphpad, San Diego, CA, USA.

[3] = 1 nM inhibitor, glycine 0.5–500 μM
[4] = 10 nM inhibitor, glycine 0.5–500 μM
[5] = 50 nM inhibitor, glycine 0.5–500 μM
[6] = 100 nM inhibitor, glycine 0.5–500 μM
[7] = IC50, inhibition of glycine transport, COS7 cells, 10 μM glycine

SMILES | MTSEA-biotin labeling of A223C, sodium dependence [1] | Vmax of glycine transport [2, 3] [nmol Gly/mg prot/6 min] | Vmax of glycine transport [2, 4] [nmol Gly/mg prot/6 min] | reversibility of inhibition upon cell washing ([2]; 50 nM inhibitor) | Vmax of glycine transport [2, 5] [nmol Gly/mg prot/6 min] | Vmax of glycine transport [2, 6] [nmol Gly/mg prot/6 min] | decay of transport inhibition after 1–4 washes [2] | IC50 ([2]; 25 mM NaCl, choline chloride substitution, read-out: IC50, inhibition of [3H]-glycine transport, low sodium) [nM] | IC50 ([2]; 150 mM NaCl, read-out: IC50, inhibition of [3H]-glycine transport, regular sodium) [nM] | selectivity for GlyT2 over GlyT1 ([2]; COS7 cells) | IC50 [2, 7] [nM] | difference of inhibitor EC50 at every glycine concentration from its value at 10 μM glycine ([2]; glycine 0.5–500 μM) | inhibition type (Eadie–Hofstee plots) ([2]; glycine 0.5–500 μM) | IC50 ([2]; IC50 (Table S1), wtGlyT2, 10 μM glycine as in Figs. 4 and 5) [nM] | IC50 ([2]; IC50, inhibition of [3H]-glycine transport, low sodium, 25 mM NaCl, choline chloride substitution) [nM] | IC50 ([2]; IC50, inhibition of [3H]-glycine transport, regular sodium, 150 mM NaCl) [nM] | selectivity for GlyT2 (in words) ([2]; compared with ALX1393, Figure 2B)
N[C@@H](COC(c1cccc(F)c1)c1ccccc1OCc1ccccc1)C(=O)O (some centres unmarked) [ALX1393] | abolished the label in NaCl but left it intact in choline chloride | 22.3 | 18.8 | eliminated by cell washing | 13.2 | 30.4 | presence of sodium in the washing buffer reduced the washing power | 122 ± 20.9 | 21.8 ± 4.1 | about 2 orders of magnitude | 31 ± 2.7 | no more than 30% | noncompetitive behavior | – | – | – | –
COc1cc(C(=O)NCC2(N(C)C)CCCC2)cc(OC)c1OCc1ccccc1 [ORG25543, N-[[1-(dimethylamino)cyclopentyl]methyl]-3,5-dimethoxy-4-(phenylmethoxy)benzamide] | protects the labeling independently of the cation present in the buffer | 24.6 | 23.8 | irreversible inhibition | 18.6 | 11.5 | no inhibition decay was observed | – | – | – | 17.7 ± 4.6 | – | mainly noncompetitive behavior | 18 ± 5 | 51.2 ± 12.3 | 23.8 ± 7.1 | higher selectivity for GlyT2
